The target of one experiment is T1, mouse TAAR1 (Mus musculus, UniProt Q923Y8).
T1 construct: expressed in transfected cells; host or cells: HEK293 (ATCC # CRL-1573), stably transfected with pIRESneo2 expression plasmid
In words: TAAR1 radioligand binding with [3H]-rac-2-(1,2,3,4-tetrahydro-1-naphthyl)-2-imidazoline, membranes of stably transfected HEK293 cells. The following applies: first value of the cell, read-out: Ki (μM) mouse/rat: mouse. The method in brief: (§1)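 Competition binding: competitors spanning 10 pM–30 μM displace 60 nM [3H]-rac-2-(1,2,3,4-tetrahydro-1-naphthyl)-2-imidazoline from stably transfected HEK293 membranes (mouse or rat receptor), 30 min, 4 °C, pH 7.0 buffer with Mg2+/Ca2+. Bound label counted after GF/C filtration; 10 μM unlabelled ligand defines non-specific binding.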

A further experiment has as its target T2, rat TAAR1 (Rattus norvegicus, UniProt Q923Y9).
T2 construct: expressed in transfected cells; host or cells: HEK293 (ATCC # CRL-1573), stably transfected with pIRESneo2 expression plasmid
The experiment is described as above. The following applies: second value of the cell, read-out: Ki (μM) mouse/rat: rat. The method in brief:
as §1

T2 sequence (Q923Y9 whole entry): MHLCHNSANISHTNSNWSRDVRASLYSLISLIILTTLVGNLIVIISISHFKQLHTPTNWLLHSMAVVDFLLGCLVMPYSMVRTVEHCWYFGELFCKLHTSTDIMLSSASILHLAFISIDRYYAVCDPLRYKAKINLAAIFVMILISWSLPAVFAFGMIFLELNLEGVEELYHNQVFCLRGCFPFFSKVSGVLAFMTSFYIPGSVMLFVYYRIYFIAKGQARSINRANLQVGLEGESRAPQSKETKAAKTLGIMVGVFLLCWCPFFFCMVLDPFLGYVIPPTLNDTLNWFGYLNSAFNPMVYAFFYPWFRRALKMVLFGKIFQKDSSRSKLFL
T1 sequence (Q923Y8 whole entry): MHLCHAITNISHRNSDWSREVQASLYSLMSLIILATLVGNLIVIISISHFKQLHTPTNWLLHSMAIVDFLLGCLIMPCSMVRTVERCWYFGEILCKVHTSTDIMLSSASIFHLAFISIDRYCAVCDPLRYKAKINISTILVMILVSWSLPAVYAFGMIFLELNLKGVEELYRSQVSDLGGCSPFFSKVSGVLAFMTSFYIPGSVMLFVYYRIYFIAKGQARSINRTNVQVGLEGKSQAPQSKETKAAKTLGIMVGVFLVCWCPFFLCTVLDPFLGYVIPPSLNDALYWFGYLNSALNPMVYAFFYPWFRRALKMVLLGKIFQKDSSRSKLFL

With `NC1=N[C@@H](CCc2ccc(NC(=O)c3ccc(Cl)s3)cc2)CO1` [Example 169, (S)-N-(4-(2-(2-Amino-4,5-dihydrooxazol-4-yl)ethyl)phenyl)-5-chlorothiophene-2-carboxamide], the figures for the Ki on mouse TAAR1 and at rat TAAR1 were 0.0005 µM and 0.0001 µM, respectively.
For `NC1=NC(c2ccc(NC(=O)Nc3ccc(Cl)cc3)cc2)CO1` (racemic) [Example 1, (RS)-1-[4-(2-Amino-4,5-dihydro-oxazol-4-yl)-phenyl]-3-(4-chloro-phenyl)-urea] the same measures were 0.0026 µM and 0.0005 µM.
For `NC1=N[C@@H](CCc2ccc(NC(=O)c3cncc(F)c3)cc2)CO1` [Example 100, N-{4-[2-((S)-2-Amino-4,5-dihydro-oxazol-4-yl)-ethyl]-phenyl}-5-fluoro-nicotinamide] the same measures were 0.004 µM and 0.0018 µM.
For `NC1=N[C@@H](CCc2ccc(NC(=O)C3CCCC3)cc2)CO1` [Example 43, Cyclopentanecarboxylic acid {4-[2-((S)-2-amino-4,5-dihydro-oxazol-4-yl)-ethyl]-phenyl}-amide] the same measures were 0.0029 µM and 0.002 µM.
Take `COc1ncc(C(=O)Nc2ccc(CC[C@H]3COC(N)=N3)cc2)cn1` [Example 83, 2-Methoxy-pyrimidine-5-carboxylic acid {4-[2-((S)-2-amino-4,5-dihydro-oxazol-4-yl)-ethyl]-phenyl}-amide]: the Ki at mouse TAAR1 turned out to be 0.0074 µM; on rat TAAR1, 0.0052 µM.
The matching figures for `C#Cc1ccc(C(=O)Nc2ccc(CC[C@H]3COC(N)=N3)cc2)cc1` [Example 62, N-{4-[2-((S)-2-Amino-4,5-dihydro-oxazol-4-yl)-ethyl]-phenyl}-4-ethynyl-benzamide]: 0.0003 µM and 0.0005 µM.
The matching figures for `NC1=N[C@@H](CCc2ccc(NC(=O)Nc3ccc(F)cc3)cc2)CO1` [Example 94, 1-{4-[2-((S)-2-Amino-4,5-dihydro-oxazol-4-yl)-ethyl]-phenyl}-3-(4-fluoro-phenyl)-urea]: 0.0003 µM and 0.0003 µM.
With `NC1=N[C@@H](CCCc2ccc(NC(=O)c3ccc(Cl)cc3)cc2)CO1` [Example 8, N-{4-[3-((S)-2-Amino-4,5-dihydro-oxazol-4-yl)-propyl]-phenyl}-4-chloro-benzamide], the values for the Ki at mouse TAAR1 and on rat TAAR1 were 0.0034 µM and 0.0001 µM, respectively.
As for `NC1=N[C@@H](CCc2ccc(NC(=O)c3ncc(F)cc3F)cc2)CO1` [Example 87, 3,5-Difluoro-pyridine-2-carboxylic acid {4-[2-((S)-2-amino-4,5-dihydro-oxazol-4-yl)-ethyl]-phenyl}-amide], the Ki worked out at 0.0057 µM on mouse TAAR1 and 0.0018 µM on rat TAAR1.
The matching figures for `NC1=N[C@@H](CCc2ccc(NC(=O)c3ccc(Cl)cc3)cc2)CO1` [Example 9, N-{4-[2-((S)-2-Amino-4,5-dihydro-oxazol-4-yl)-ethyl]-phenyl}-4-chloro-benzamide]: 0.0002 µM and 0.0004 µM.
The matching figures for `NC1=N[C@@H](CCc2ccc(NC(=O)Nc3ncc(Cl)cn3)cc2)CO1` [Example 151, 1-{4-[2-((S)-2-Amino-4,5-dihydro-oxazol-4-yl)-ethyl]-phenyl}-3-(5-chloro-pyrimidin-2-yl)-urea]: 0.0071 µM and 0.0028 µM.
The matching figures for `CC(C)c1sc(N(C)C)nc1C(=O)Nc1ccc(CC[C@H]2COC(N)=N2)cc1` [Example 189, (S)-N-(4-(2-(2-Amino-4,5-dihydrooxazol-4-yl)ethyl)phenyl)-2-(dimethylamino)-5-isopropylthiazole-4-carboxamide]: 0.0008 µM and 0.0018 µM.
For `CCOc1ccc(C(=O)Nc2ccc(CC[C@H]3COC(N)=N3)cc2)nc1` [Example 153, (S)-N-(4-(2-(2-Amino-4,5-dihydrooxazol-4-yl)ethyl)phenyl)-5-ethoxypicolinamide], the Ki at mouse TAAR1 came to 0.0009 µM; on rat TAAR1, 0.001 µM.
For the compound `NC1=N[C@@H](CCc2ccc(NC(=O)c3ccc(C(F)(F)F)cc3)cc2)CO1` [Example 17, N-{4-[2-((S)-2-Amino-4,5-dihydro-oxazol-4-yl)-ethyl]-phenyl}-4-trifluoromethyl-benzamide], the Ki is 0.0002 µM on mouse TAAR1 and 0.0004 µM on rat TAAR1.
The matching figures for `NC1=N[C@@H](CCc2ccc(NC(=O)c3ccc(Br)nc3)cc2)CO1` [Example 106, N-{4-[2-((S)-2-Amino-4,5-dihydro-oxazol-4-yl)-ethyl]-phenyl}-6-bromo-nicotinamide]: 0.0012 µM and 0.0009 µM.
For `NC1=N[C@@H](CCc2ccc(NC(=O)Nc3ccc(Cl)c(Cl)c3)cc2)CO1` [Example 14, 1-{4-[2-((S)-2-Amino-4,5-dihydro-oxazol-4-yl)-ethyl]-phenyl}-3-(3,4-dichloro-phenyl)-urea] the same measures were 0.0001 µM and 0.0001 µM.
For `NC1=N[C@@H](CCc2ccc(NC(=O)c3cncc(Cl)n3)cc2)CO1` [Example 160, (S)-N-(4-(2-(2-Amino-4,5-dihydrooxazol-4-yl)ethyl)phenyl)-6-chloropyrazine-2-carboxamide] the same measures were 0.0047 µM and 0.0018 µM.
For the compound `NC1=N[C@@H](CCc2ccc(NC(=O)c3cnc(Cl)c(Cl)c3)cc2)CO1` [Example 109, N-{4-[2-((S)-2-Amino-4,5-dihydro-oxazol-4-yl)-ethyl]-phenyl}-5,6-dichloro-nicotinamide], the Ki came out at 0.0006 µM at mouse TAAR1 and 0.0016 µM on rat TAAR1.
For `NC1=N[C@@H](CCc2ccc(NC(=O)Nc3ccc(Cl)cn3)cc2)CO1` [Example 35, 1-{4-[2-((S)-2-Amino-4,5-dihydro-oxazol-4-yl)-ethyl]-phenyl}-3-(5-chloro-pyridin-2-yl)-urea] the same measures were 0.0001 µM and 0.0003 µM.
The matching figures for `CCc1cncc(C(=O)Nc2ccc(CC[C@H]3COC(N)=N3)cc2)n1` [Example 211, (S)-N-(4-(2-(2-Amino-4,5-dihydrooxazol-4-yl)ethyl)phenyl)-6-ethylpyrazine-2-carboxamide]: 0.0023 µM and 0.0024 µM.
For `CC(C)(C)c1cc(C(=O)Nc2ccc(CC[C@H]3COC(N)=N3)cc2)ccn1` [Example 197, (S)-N-(4-(2-(2-Amino-4,5-dihydrooxazol-4-yl)ethyl)phenyl)-2-tert-butylisonicotinamide] the same measures were 0.003 µM and 0.0049 µM.
For the compound `NC1=N[C@@H](CCc2ccc(NC(=O)C3(C(F)(F)F)CC3)cc2)CO1` [Example 52, 1-Trifluoromethyl-cyclopropanecarboxylic acid {4-[2-((S)-2-amino-4,5-dihydro-oxazol-4-yl)-ethyl]-phenyl}-amide], the Ki was 0.0073 µM at mouse TAAR1 and 0.006 µM on rat TAAR1.
The matching figures for `NC1=N[C@@H](CCc2ccc(NC(=O)c3nc(Cl)ccc3F)cc2)CO1` [Example 89, 6-Chloro-3-fluoro-pyridine-2-carboxylic acid {4-[2-((S)-2-amino-4,5-dihydro-oxazol-4-yl)-ethyl]-phenyl}-amide]: 0.0044 µM and 0.0007 µM.
Turning to `CCOc1cnc(C(=O)Nc2ccc(CC[C@H]3COC(N)=N3)cc2)cn1` [Example 161, (S)-N-(4-(2-(2-Amino-4,5-dihydrooxazol-4-yl)ethyl)phenyl)-5-ethoxypyrazine-2-carboxamide], the values for the Ki at mouse TAAR1 and at rat TAAR1 were 0.001 µM and 0.0012 µM, respectively.
The matching figures for `COc1cc(C(=O)Nc2ccc(CC[C@H]3COC(N)=N3)cc2)nc(Cl)n1` [Example 231, 2-Chloro-6-methoxy-pyrimidine-4-carboxylic acid {4-[2-((S)-2-amino-4,5-dihydro-oxazol-4-yl)-ethyl]-phenyl}-amide]: 0.0009 µM and 0.0013 µM.
The matching figures for `CC(C(=O)Nc1ccc(CC[C@H]2COC(N)=N2)cc1)c1cccc(OC(F)(F)F)c1` (stereo partly drawn) [Example 82, N-{4-[2-((S)-2-Amino-4,5-dihydro-oxazol-4-yl)-ethyl]-phenyl}-2-(3-trifluoromethoxy-phenyl)-propionamide]: 0.0005 µM and 0.0017 µM.
The matching figures for `NC1=N[C@@H](CCc2ccc(NC(=O)c3ccc(C(F)(F)F)cn3)cc2)CO1` [Example 54, 5-Trifluoromethyl-pyridine-2-carboxylic acid {4-[2-((S)-2-amino-4,5-dihydro-oxazol-4-yl)-ethyl]-phenyl}-amide]: 0.0008 µM and 0.0019 µM.
With `Cc1ccc(C(=O)Nc2ccc(CC[C@H]3COC(N)=N3)cc2)cn1` [Example 98, N-{4-[2-((S)-2-Amino-4,5-dihydro-oxazol-4-yl)-ethyl]-phenyl}-6-methyl-nicotinamide], the figures for the Ki on mouse TAAR1 and on rat TAAR1 were 0.0068 µM and 0.0019 µM, respectively.
The matching figures for `NC1=N[C@@H](CCc2ccc(NC(=O)c3ccc(F)cn3)cc2)CO1` [Example 96, (S)-N-(4-(2-(2-amino-4,5-dihydrooxazol-4-yl)ethyl)phenyl)-5-fluoropicolinamide]: 0.001 µM and 0.0006 µM.
For `Cc1ccc(C(=O)Nc2ccc(CC[C@H]3COC(N)=N3)cc2)nc1` [Example 171, (S)-N-(4-(2-(2-Amino-4,5-dihydrooxazol-4-yl)ethyl)phenyl)-5-methylpicolinamide] the same measures were 0.0008 µM and 0.0011 µM.
For `NC1=N[C@@H](CCc2ccc(NC(=O)c3cccc(Cl)c3)cc2)CO1` [Example 18, N-{4-[2-((S)-2-Amino-4,5-dihydro-oxazol-4-yl)-ethyl]-phenyl}-3-chloro-benzamide] the same measures were 0.0002 µM and 0.0002 µM.
Turning to `NC1=N[C@@H](C[C@@H](Oc2ccc(NC(=O)c3ccc(Cl)cc3)cc2)C(F)(F)F)CO1` [Example 150, N-{4-[(R)-1-((S)-2-Amino-4,5-dihydro-oxazol-4-ylmethyl)-2,2,2-trifluoro-ethoxy]-phenyl}-4-chloro-benzamide], the values for the Ki on mouse TAAR1 and on rat TAAR1 were 0.0004 µM and 0.0005 µM, respectively.

The values are drawn from patent US8354441B2, “Oxazoline derivatives” (Hoffmann-La Roche Inc., priority 2009, dated 2013).
